According to patent publication US4985449A, “N-benzoyl-N-pyridyloxy phenyl urea compounds and pesticide compositions containing them” (Ishihara Sangyo Kaisha Ltd., priority 1986, dated 1991):

Tests used:
Format in all cases: in vivo
[1] = system: house mosquito (Cullex pipiens pallens); experiment: Larvicidal test against larvae of house mosquito (Test Example 5); conditions: 216 h, 2.5 ppb, 9th day after release, 26° C.
Protocol: Two hundreds ml of a diluted solution containing 2.5 ppb of each active ingredient was poured into a jar and 20 larvae of house mosquito (Cullex pipiens pallens) were released into the jar. Then, the jar was kept in a constant temperature chamber with lightening at 26° C. Larvae were fed every other day with 1-2 mg of powdered feed. On the 9th day after the release, dead insects were counted, and the mortality was calculated in the same manner as in Test Example 2. The results are shown in […]

[2] = system: house fly (Musca domestica); experiment: Egg hatch inhibition test by the treatment of adults of house fly (Test Example 6); conditions: po, 100 μg/g in diet of adult females for 3 days, unhatched eggs assessed one day after collection, read-out: ratio of the egg hatch inhibition (REHI)
Protocol: Sugar and skim milk were mixed in a weight ratio of 1:1, and 2 g of the mixture was put into a Petri dish having a diameter of 5.5 cm. 0.5 ml of an acetone solution containing the active ingredient was added to the mixture in the Petri dish. After acetone evaporated, the treated mixture was thoroughly mixed, and the concentration of the active ingredient was adjusted to 100 μg/g. Twenty non-mating females of house fly (Musca domestica) were allowed to feed on the poisoned diet (the treated mixture) in a cage. After 3 days, the diet was changed to the untreated mixture, then 20 non-mating males were released into the cage for mating. On the 3rd day after release, a cup of the medium for rearing fly larvae was set in the cage for oviposition for 7 hours. The egg laid on the medium were collected and kept on the moistened filter paper in a Petri dish. One day later, unhatched eggs were assessed and the ratio of the egg hatch inhibition (REHI) was calculated by the following equation: [formula]

[3] = system: two-spotted spider mite (Tetranychus urticae); experiment: Miticidal test against two-spotted spider mite (Test Example 1); conditions: 120 h, 5th day after treatment, larvae and nimphs on French bean, 26° C.
Text: Each formulation containing an active ingredient was dispersed in water to obtain a dispersion of each active ingredient having a concentration of 800 or 200 ppm. Each of French bean seedlings with only on primary leaf left, was transplanted to a cup having a diameter of 7 cm and a height of 4 cm. About 30 larvae and […] of two-spotted spider mite (Tetranychus urticae) were infested to the leaf of the French bean. Then, the French bean was dipped in the dispersion having the concentration of 800 ppm or 200 ppm for about 10 seconds, then dried in air and kept in a constant temperature chamber with lightening at 26° C. On the 5th day after the treatment, dead mites were counted, and the mortality was calculated by the following equation: [formula]

[4] = system: house fly (Musca domestica); experiment: Larvicidal test against larvae of house fly (Test Example 4); conditions: feed or water, 240 h, 10 ppm in feed, second instar larvae, 10th day after release, emerged adults counted
Protocol: Powder feed for test animals (manufactured by Oriental Kobo Kogyo K.K.) and bran were mixed in a weight ratio of 1:1 and pulverized, and 10 g of the mixture was packed in an ice cream cup. Each of the formulations containing the active ingredients, was dispersed in water, and 10 ml of the dispersion was added to the mixture in the ice cream cup and thoroughly mixed to adjust the concentration of the active ingredient to 10 ppm. Into the ice cream cup, 20 larvae of house fly (Musca domestica) in second instar were released, and kept in a constant temperature chamber with lightening at 26° C. On the 10th day after the release, the emerged adults were counted, and the mortality was calculated in accordance with the following equation. [formula]

Structure (SMILES) | mortality at 0.0025 ppm [1] | inhibition at 100 µg/g [2] | mortality at 800 ppm [3] | mortality at 10 ppm [4] | mortality at 200 ppm [3]
CN(C(=O)NC(=O)c1c(F)cccc1F)c1cc(Cl)c(Oc2ncc(C(F)(F)F)cc2Cl)c(Cl)c1 [Compound No. 1, N-[3,5-dichloro-4-(3-chloro-5-trifluoromethyl-2-pyridyloxy)phenyl]-N'-(2,6difluorobenzoyl)-N-methylurea] | 100% | 100% |  |  | 
CN(C(=O)NC(=O)c1c(F)cccc1F)c1ccc(Oc2ncc(C(F)(F)F)cc2Cl)c(F)c1F [Compound No. 2, N-[4-(3-chloro-5-trifluoromethyl-2-pyridyloxy)-2,3-difluorophenyl]-N'-(2,6, -difluorobenzoyl)-N-methylurea] | 90% |  |  |  | 
CN(C(=O)NC(=O)c1c(F)cccc1F)c1ccc(Oc2ncc(C(F)(F)F)cc2Cl)c(F)c1 [Compound No. 3, N-{4-[3-chloro-5-trifluoromethyl-2-pyridyloxy]-3-fluorophenyl}-N'-(2,6-difluorobenzoyl)-N-methylurea] | 100% | 88% |  |  | 
CN(C(=O)NC(=O)c1c(F)cccc1F)c1ccc(Oc2ccc(C(F)(F)F)cc2Cl)c(F)c1 [Compound No. 4, N-{4-[2-chloro-4-trifluoromethylphenoxy]-3-fluorophenyl}-N'-(2,6-difluorobenzoyl)-N-methylurea] | 100% |  | 90% |  | 
COC(=O)c1cc(N(C)C(=O)NC(=O)c2c(F)cccc2F)cc(C)c1Oc1ncc(C(F)(F)F)cc1Cl [Compound No. 6] |  |  |  | 90% | 
CN(C(=O)NC(=O)c1c(F)cccc1F)c1cc(F)c(-c2ccc(C(F)(F)F)cc2)cc1F [Compound No. 24] |  | 100% |  | 100% | 
CN(C(=O)NC(=O)c1c(F)cccc1F)c1ccc(Oc2ccc(C(F)(F)F)cc2Cl)c(Cl)c1 [compound 12, N-[3-chloro-4-(2-chloro-4-trifluoromethylphenoxy)phenyl]-N'-(2,6-difluorobenzoyl)-N-methylurea] |  | 100% | 100% | 100% | 100%
CN(C(=O)NC(=O)c1c(F)cccc1F)c1ccc(Oc2ccc(C(F)(F)F)cc2Cl)c(Cl)c1F [compound 13, N-[3-chloro-4-(2-chloro-4-trifluoromethylphenoxy)-2-fluorophenyl]-N'-(2,6-difluorobenzoyl)-N-methylurea] |  | 100% |  | 100% | 99%
